Earlier results, collected in patent US20220354785A1, “ORAL LOZENGE PRODUCTS” (NICOVENTURES TRADING LIMITED, priority 2021, published 2022).

What was measured:
[1] = isomerizes to trans-bixin
[2] = aqueous environment (e.g., saliva) / water

Row | Compound | logP value | chemical stability when isolated [1] | solubility in water [2]
1 | C=C(C)[C@@H]1CCC(C)=C[C@H]1c1c(O)cc(CCCCC)cc1O [CBD, cannabidiol] | about 6.5 | – | –
2 | COC(=O)/C=C/C(C)=C\C=C\C(C)=C\C=C\C=C(C)\C=C\C=C(C)\C=C\C(=O)O [bixin] | – | chemically unstable when isolated | insoluble in water
